Data set [1] can be described thus: Cytotoxicity against human COLO205 cells after 48 hrs by sulforhodamine B assay. Type of data set: functional, cell-based. The settings on record: COLO 205, 48 h. Background: The SRB assay estimates cell density from bound dye.
A short description of data set [2]: Cytotoxicity against human HCT15 cells after 48 hrs by sulforhodamine B assay. The settings on record: HCT-15, 48 h. It is filed as functional, cell-based.
The subject of the next data set is HT-29. Briefly: Cytotoxicity against human HT-29 cells after 48 hrs by sulforhodamine B assay. The settings on record: HT-29, 48 h. Type of data set: functional, cell-based.
The next data set concerns KM12. In words: Cytotoxicity against human KM12 cells after 48 hrs by sulforhodamine B assay. The settings on record: KM12, 48 h. It is filed as functional, cell-based.
Data set [3] can be described thus: Cytotoxicity against human SW620 cells after 48 hrs by sulforhodamine B assay. It is filed as functional, cell-based. The following applies: SW-620, 48 h.
Data set [4] is described as follows: Cytotoxicity against human HCC2998 cells after 48 hrs by sulforhodamine B assay. The following applies: HCC 2998, 48 h. It is filed as functional, cell-based.
Data set [5] in a line: Cytotoxicity against human HCT116 cells after 48 hrs by sulforhodamine B assay. It is filed as functional, cell-based. The following applies: HCT-116, 48 h.
A short description of data set [6]: Cytotoxicity against human HSC4 cells assessed as cell death after 48 hrs by MTT assay. It is filed as functional. The settings on record: HSC-4, 48 h. (In general: Formazan colour is commonly taken as a measure of viable cells.)
The nature of data set [7]: Cytotoxicity against human HSC2 cells assessed as cell death after 48 hrs by MTT assay. The settings on record: HSC-2, 48 h. Type of data set: functional.
Data set [8] can be described thus: Antiproliferative activity against human Molt4/C8 cells assessed as cell survival after 72 hrs by coulter counter analysis. Type of data set: functional, cell-based. The settings on record: MOLT-4, 72 h.
The next data set has as its system HL-60. In words: Selectivity index, ratio of CC50 for HGF to CC50 for human HL60 cells. The following applies: pooled result: one value given for 3 cell lines, strains, targets or settings.
Data set [9] is described as follows: Cytotoxicity against HPLF assessed as cell death after 48 hrs by MTT assay. The following applies: human, HPLF cells.
A further data set has as its system HSC-2. In words: Selectivity index, ratio of CC50 for HGF to CC50 for human HSC2 cells. The following applies: pooled result: one value given for 3 cell lines, strains, targets or settings.
Data set [10] in a line: Cytotoxicity against human HL60 cells assessed as cell death after 48 hrs by MTT assay. It is filed as functional. The settings on record: HL-60, 48 h.
A further data set has as its system L1210. In words: Antiproliferative activity against mouse L1210 cells assessed as cell survival after 48 hrs by coulter counter analysis. The settings on record: L1210, 48 h. It is filed as functional, cell-based.
Data set [11] is described as follows: Cytotoxicity against HPC assessed as cell death after 48 hrs by MTT assay. The following applies: human, HPC cells.
The nature of data set [12]: Cytotoxicity against HGF assessed as cell death after 48 hrs by MTT assay. The following applies: human, HGF cells.
In a further data set the test system is HSC-3. Briefly: Selectivity index, ratio of CC50 for HGF to CC50 for human HSC3 cells. The settings on record: pooled result: one value given for 3 cell lines, strains, targets or settings.
In data set [13] the test system is CCRF-CEM. Briefly: Antiproliferative activity against human CEM cells assessed as cell survival after 72 hrs by coulter counter analysis. Type of data set: functional, cell-based.
Data set [14] can be described thus: Cytotoxicity against human HSC3 cells assessed as cell death after 48 hrs by MTT assay. Type of data set: functional. The settings on record: HSC-3, 48 h.
Another data set deals with HSC-4. In words: Selectivity index, ratio of CC50 for HGF to CC50 for human HSC4 cells. The settings on record: pooled result: one value given for 3 cell lines, strains, targets or settings.
The nature of data set [15]: Potency index, ratio of melphalan IC50 to compound IC50 for antiproliferative activity against human Molt4/C8 cells. It is filed as functional, MOLT-4.
Data set [16] relates to CCRF-CEM. In words: Potency index, ratio of melphalan IC50 to compound IC50 for antiproliferative activity against human CEM cells. Type of data set: functional.

Results on five compounds are retold here after ChEMBL document CHEMBL3763040, “3,5-Bis(3-alkylaminomethyl-4-hydroxybenzylidene)-4-piperidones: A Novel Class of Potent Tumor-Selective Cytotoxins” (J Med Chem, 2016).

As a reminder, the CC50 is the concentration giving 50% cytotoxicity. Broadly, the TGI is the concentration at which net growth stops. A higher TGI goes with lower sensitivity of the cells. For orientation: IC50 means the concentration needed to halve the response being measured.

SMILES strings stand for the structures. Some results are limits rather than exact numbers.

As for `O=c1[nH]cc(F)c(=O)[nH]1` [FLUOROURACIL], the CC50 (in data set [1]; in data set [2]; in the data set on HT-29; in the data set with KM12; in data set [3]; in data set [4]) was greater than 2510 µM throughout. In data set [5], this compound gave a CC50 greater than 2510 µM. The TGI (in data set [1]; in [2]; with HT-29; in the data set with KM12; in data set [3]; in data set [4]) was greater than 1860 µM each time. The compound also displayed a TGI in data set [5] greater than 1860 µM.

For `O=C(/C=C/c1ccc(O)cc1)/C=C/c1ccc(O)cc1`, the CC50 stood at 4.9 µM in data set [6], 5.3 µM in [7], 3.9 µM in data set [10] and 5.4 µM in [14]. Moreover, the IC50 in data set [8] came out at 3.69 µM; in the data set with L1210, 7.74 µM; in the data set with CCRF-CEM [13], 3.38 µM. Also, the “Selectivity Index” value is reported as 4.21 in the data set with HL-60, 3.09 with HSC-2, 3.04 in the data set with HSC-3 and 3.35 with HSC-4. For the same compound, the 50% cytotoxic concentration (CC50) at 48 h in data set [9] was 16 µM; in data set [11], 9.2 µM; in data set [12], 24 µM.

In the case of `N[C@@H](Cc1ccc(N(CCCl)CCCl)cc1)C(=O)O`, the cytotoxic concentration (CC50) was found to be 32 µM in [6], 8.7 µM in data set [7], 1.4 µM in data set [10] and 25 µM in data set [14]. Also, the “Selectivity Index” value in the data set on HL-60 amounted to 150; in the data set on HSC-2 it was 24.1; with HSC-3, 8.4; in the data set with HSC-4, 6.56.

Turning to `Cl.Cl.Cl.O=C1/C(=C/c2ccc(O)c(CN3CCOCC3)c2)CNC/C1=C\c1ccc(O)c(CN2CCOCC2)c1`, the “Ratio IC50” value in data set [15] turned out to be 2.03; in the data set on CCRF-CEM [16], 1.48. Further, the CC50 amounted to 1.1 µM in data set [6], 0.6 µM in data set [7], 0.71 µM in data set [10] and 1 µM in data set [14]. In addition, the IC50 in [8] is 1.6 µM; with L1210, 7.78 µM; in the data set with CCRF-CEM [13], 1.67 µM. In addition, the “Selectivity Index” value in the data set on HL-60 amounted to 5.11; in the data set with HSC-2 it was 6.05; in the data set on HSC-3, 3.63; in the data set with HSC-4, 3.3. Besides, the CC50 at 48 h amounted to 3.8 µM in [9], 3.4 µM in data set [11] and 3.7 µM in data set [12].

`O=C1/C(=C/c2ccc(O)cc2)CCC/C1=C\c1ccc(O)cc1`: the “Ratio IC50” value in data set [15] is 3.06. Also, the CC50 in [6] was 62 µM; in data set [7], 16 µM; in data set [10], 1.9 µM; in data set [14], 50 µM. Besides, the IC50 was determined as 1.06 µM in data set [8], 10.7 µM in the data set on L1210 and 6.96 µM in the data set on CCRF-CEM [13]. For the same compound, the “Selectivity Index” value is recorded as greater than 105 in the data set on HL-60, greater than 12.5 with HSC-2, greater than 4 in the data set on HSC-3 and greater than 3.23 with HSC-4. Also, the CC50 at 48 h in data set [9], in [11] and in [12] was greater than 200 µM in each case.
